From US9610274B2, “Methods for treating bipolar disorder” (priority 2010, dated 2017)

Columns and labels:
Assay type in all cases: in vivo
[1] = test system: homozygous mutant dopamine transporter knockout (KO) mice; experiment: Spontaneous activity in the open field, dopamine transporter KO mice; conditions: single SC injection, test compound 10, 30, 100 mg/kg, amphetamine 2 mg/kg, 90 min post-injection, relative to vehicle
Description: Male and female wild-type and homozygous mutant dopamine transporter KO mice (n˜10 mice/genotype/agent; produced by in vivo homologous recombination and bred at Duke University Medical Center, Durham, N.C.) were tested for spontaneous activity in the open field following a single injection of the vehicle or compound. […] All drugs were given in a volume of 5 mL/kg. Animals were returned to the open field for an additional 90 min. Spontaneous activity was evaluated in an automated Omnitech Digiscan apparatus (Accuscan Instruments, Columbus, Ohio). Activity was summated at 5 min intervals over the 2 h period of testing. Horizontal activity or locomotion was measured in terms of the total distance covered in cm, vertical activity or rearing was expressed in terms of the total numbers of vertical beam breaks, and stereotypy was quantified in terms of repetitive breaks of a given beam or beams with intervals of less than 1 sec. For the analyses, 10 WT and 10 KO mice were run in each of the treatment groups with approximately equal numbers of males and females assigned to each group. Data were analyzed by the Statistical Package for Social Sciences programs (version 11.0 for Windows; SPSS Science, Chicago, Ill.). The results for each dependent variable were analyzed by repeated analyses of variance (RMANOVA) for within subjects effects (group differences over time) and between-subjects effects (tests of main effects and interactions). Bonferroni corrected pair-wise comparisons were used as the post-hoc tests. A p <0.05 was considered significant.

wild-type mice = experiment: Spontaneous activity in the open field, wild-type mice; conditions: WT mice; amphetamine 2 mg/kg SC; relative to vehicle
Description: Male and female wild-type and homozygous mutant dopamine transporter KO mice (n˜10 mice/genotype/agent; produced by in vivo homologous recombination and bred at Duke University Medical Center, Durham, N.C.) were tested for spontaneous activity in the open field following a single injection of the vehicle or compound. Mice were placed into the open field for 30 min and administered SC the vehicle (sterile water), 2 mg/kg amphetamine, or three concentrations of the test compound (10, 30, 100 mg/kg). All drugs were given in a volume of 5 mL/kg. Animals were returned to the open field for an additional 90 min. Spontaneous activity was evaluated in an automated Omnitech Digiscan apparatus (Accuscan Instruments, Columbus, Ohio). […] Horizontal activity or locomotion was measured in terms of the total distance covered in cm, vertical activity or rearing was expressed in terms of the total numbers of vertical beam breaks, and stereotypy was quantified in terms of repetitive breaks of a given beam or beams with intervals of less than 1 sec. […] Data were analyzed by the Statistical Package for Social Sciences programs (version 11.0 for Windows; SPSS Science, Chicago, Ill.). The results for each dependent variable were analyzed by repeated analyses of variance (RMANOVA) for within subjects effects (group differences over time) and between-subjects effects (tests of main effects and interactions). […]

isolated mice = experiment: Isolation-induced fighting in mice; conditions: Mus musculus
Description: Male CD-1 mice (15-20 g) were utilized in this experiment. The test compound (15, 22 and 30 mg/kg) was dissolved in physiological saline (0.9%) and administered orally (PO) in a volume of 1 mL/100 g body weight.
Mice were isolated for up to 8 weeks in individual solid walled wire cages (24×20×17 cm). The animals were not disturbed except to replenish food. Aggression was tested by placing an intruder mouse into the home cage of the resident animal. Aggression was characterized by an attack on the “intruder” during a three minute period. […] Only those resident mice displaying fighting behavior were selected. […] ED50 values were calculated from the percent inhibition of fighting in computer program based on probit analysis.

[2] = test system: adult human subjects with moderate or severe major depression without psychotic features; experiment: Randomized double-blind placebo- and active-controlled 6-week study in major depression; conditions: paroxetine 20 mg/day; for MADRS response rate / MADRS remission rate: Week 6; for MADRS response rate: >50% improvement in MADRS total score; for MADRS remission rate: MADRS total score less than 9
Description: The primary objective of this study was to determine the efficacy of 2 target doses of test compound (200 and 400 mg/day) in comparison with placebo during 6 weeks of treatment in adult human subjects with moderate or severe major depression without psychotic features. An active comparator (paroxetine) was included to assist in distinguishing a negative study from a failed study. In addition, an exit interview was intended to gather information on unexpected benefits of the test compound in order to refine the clinical development program. […] In addition, positive effects of the test compound on ratings of physical energy/fitness, reduction in sadness or depression and mental energy or motivation.
This was a randomized, double-blind, parallel-group, active, and placebo-controlled, multicenter study conducted in the U.S. (23 centers) and Canada (4 centers). There were 2 phases: a pretreatment phase (screening/washout and a baseline visit) and a 6-week, double-blind treatment phase. Paroxetine, a positive control, was included to evaluate assay sensitivity. After washout (if needed) of prohibited substances, subjects were randomly assigned (1:1:1:1) to receive the test compound titrated to a target dose of 200 mg/day or 400 mg/day, matching placebo, or a fixed dose (20 mg/day) of paroxetine. Study drug was given twice daily for 6 weeks. Efficacy and safety were assessed weekly during the double-blind phase. Subjects completing the study underwent an Exit Interview (“Your Health and Well-Being”) and completed an Assessment of Benefits of Clinical-trial Drug-treatment (ABCD) questionnaire (U.S. sites only).

[3] = ITT (LOCF), change from baseline at Week 6
[4] = Per-Protocol (LOCF), change from baseline at Week 6

Q: For `CC(N)Cc1ccccc1` (stereo not drawn) [Amphetamine, amphetamine, reference compound], which “spontaneous activity (locomotor, rearing and stereotypical activities)” value [1] is on record?
A: decreased them in KO animals

Q: And the “spontaneous activity (locomotor, rearing and stereotypical activities)” value (wild-type mice)?
A: increased locomotor, rearing and stereotypical activities in WT mice

Q: For `CN(C)CCCN1c2ccccc2CCc2ccccc21` [Imipramine, imipramine, reference compound], which inhibition at 15 mg/kg (isolated mice; 1 h, 15 mg/kg PO, 60 min after dosing) is on record?
A: 20%

Q: And the inhibition at 30 mg/kg (isolated mice; 1 h, 30 mg/kg PO, 60 min after dosing)?
A: 50%

Q: And the ED50 (isolated mice; PO, inhibition of isolation-induced fighting, probit analysis, read-out: ED50 (mg/kg, PO) (confidence limits))?
A: ~30 mg/kg

Q: With `Fc1ccc([C@@H]2CCNC[C@H]2COc2ccc3c(c2)OCO3)cc1` [Paroxetine, paroxetine, reference compound] as the compound, how does the MADRS response rate ([2]; ITT (LOCF)) read?
A: 48%

Q: And the MADRS remission rate ([2]; ITT (LOCF))?
A: 26%

Q: And the “3 Atypical items of HAM-D 31, mean result” value [2, 3]?
A: −0.6

Q: And the “CGI-S score, mean result” value [2, 3]?
A: −1.5

Q: What about the “MADRS core mood subscale, mean result” value [2, 3] of the same compound?
A: −9.7

Q: What about the “MADRS sadness (Items 1 + 2), mean result” value [2, 3] of the same compound?
A: −3.9

Q: And the “MADRS total score (primary), mean result” value [2, 3]?
A: −14.1

Q: What about the “superiority to placebo on the primary endpoint (change from baseline at Week 6 in MADRS total score)” value ([2]; ITT (LOCF), test compound 200 mg and 400 mg) of the same compound?
A: statistically significant superiority to placebo

Q: And the MADRS response rate ([2]; Per-Protocol (LOCF))?
A: 60%

Q: And the MADRS remission rate ([2]; Per-Protocol (LOCF))?
A: 35%

Q: And the “CGI-S score, mean result” value [2, 4]?
A: −1.9

Q: And the “MADRS total score, mean result” value [2, 4]?
A: −17.1

Q: What about the “ABCD questionnaire items with statistically significant superiority to placebo” value ([2]; post hoc analyses, of 51 items, U.S. sites) of the same compound?
A: 14 items
